In ChEMBL document CHEMBL1201862, “PubChem BioAssay data set” (2004):
Several values for one entry are separate records, joined by “and”; a condition that tells them apart may be missing. Equal entries are not always repeated.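 Values below derive from 48-hour exposures of cells grown in 96-well plates, with endpoints linearly interpolated between the two concentrations bracketing the appropriate inhibition level. GI50 marks 50% less growth.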 Activity calls are given as the source filed them. Cut-off read from the data, not from the text of the source: active = GI50 up to about 1.1 µM and inactive = higher.

What was measured:
Test in all cases: growth of human tumour cells (NCI), 48 h
SF-268 = system: SF-268
EKVX = system: EKVX
786-0 = system: 786-0
UO-31 = system: UO-31
BT-549 = system: BT-549
MDA-N = system: MDA-N
MDA-MB-231 = system: MDA-MB-231
UACC-257 = system: UACC-257
NCI-H226 = system: NCI-H226
OVCAR-3 = system: OVCAR-3
KM12 = system: KM12
LOX IMVI = system: LOX IMVI
TK-10 = system: TK-10
M14 = system: M14
NCI/ADR-RES = system: NCI/ADR-RES
A549 = system: A549
NCI-H23 = system: NCI-H23
HCC 2998 = system: HCC 2998
HCT-116 = system: HCT-116
OVCAR-5 = system: OVCAR-5
PC-3 = system: PC-3
CCRF-CEM = system: CCRF-CEM
MOLT-4 = system: MOLT-4
SN12C = system: SN12C
Hs-578T = system: Hs-578T
SW-620 = system: SW-620
RXF 393 = system: RXF 393
RPMI-8226 = system: RPMI-8226
HOP-92 = system: HOP-92
A498 = system: A498
HT-29 = system: HT-29
MCF7 = system: MCF7
SNB-75 = system: SNB-75
OVCAR-8 = system: OVCAR-8
HCT-15 = system: HCT-15
NCI-H460 = system: NCI-H460
T47D = system: T47D
SF-539 = system: SF-539
UACC-62 = system: UACC-62
SF-295 = system: SF-295
K562 = system: K562
MDA-MB-435 = system: MDA-MB-435
SR = system: SR
OVCAR-4 = system: OVCAR-4
HOP-62 = system: HOP-62
SK-MEL-5 = system: SK-MEL-5
CAKI-1 = system: CAKI-1
COLO 205 = system: COLO 205
DU-145 = system: DU-145
ACHN = system: ACHN
SNB-19 = system: SNB-19
IGROV-1 = system: IGROV-1
SK-MEL-2 = system: SK-MEL-2
NCI-H522 = system: NCI-H522
HL-60 = system: HL-60
Malme-3M = system: Malme-3M
SK-OV-3 = system: SK-OV-3
U-251 = system: U-251
SK-MEL-28 = system: SK-MEL-28

Measured: GI50

COc1ccc2[nH]cc([C@@H]3C4CCC(C4)[C@H]3NCc3cccc(CN[C@H]4C5CCC(C5)[C@@H]4c4c[nH]c5ccc(OC)cc45)c3)c2c1
0.791 µM and 0.998 µM: HCT-15
1.1 µM (active) and 1.51 µM (inactive): SN12C
inactive: SF-268 1.53 µM and 1.47 µM | EKVX 1.51 µM and 1.52 µM | UO-31 1.36 µM and 1.52 µM | BT-549 1.69 µM and 1.62 µM | MDA-MB-231 1.44 µM and 1.2 µM | UACC-257 1.38 µM and 1.64 µM | NCI-H226 2.01 µM and 1.91 µM | OVCAR-3 1.65 µM and 1.54 µM | TK-10 1.63 µM and 1.51 µM | NCI/ADR-RES 1.55 µM and 1.68 µM | A549 1.46 µM and 1.61 µM | NCI-H23 1.75 µM and 1.53 µM | OVCAR-5 1.55 µM and 1.71 µM | PC-3 1.29 µM and 1.46 µM | Hs-578T 1.71 µM and 1.5 µM | RXF 393 1.36 µM and 1.66 µM | A498 1.82 µM and 1.78 µM | SNB-75 1.26 µM and 1.22 µM | T47D 1.72 µM and 1.99 µM | UACC-62 1.8 µM and 1.75 µM | SF-295 1.45 µM and 1.66 µM | OVCAR-4 1.37 µM and 1.32 µM | HOP-62 1.62 µM and 1.6 µM | SK-MEL-5 1.62 µM and 1.55 µM | CAKI-1 1.6 µM and 1.79 µM | DU-145 1.67 µM and 1.68 µM | ACHN 1.76 µM and 1.16 µM | SNB-19 1.53 µM and 1.65 µM | IGROV-1 1.42 µM and 1.58 µM | SK-MEL-2 1.59 µM and 1.55 µM | NCI-H522 1.5 µM and 1.17 µM | Malme-3M 1.86 µM and 1.88 µM
1.1 µM (active) and 1.31 µM (inactive): HOP-92
active: 786-0 731 nM and 708 nM | KM12 463 nM and 643 nM | LOX IMVI 244 nM and 235 nM | M14 640 nM and 600 nM | HCC 2998 339 nM and 256 nM | HCT-116 766 nM and 678 nM | CCRF-CEM 366 nM and 352 nM | MOLT-4 577 nM and 467 nM | SW-620 238 nM and 384 nM | RPMI-8226 531 nM and 369 nM | HT-29 230 nM and 218 nM | OVCAR-8 891 nM and 998 nM | NCI-H460 340 nM and 237 nM | K562 228 nM and 178 nM | MDA-MB-435 520 nM and 733 nM | SR 231 nM and 250 nM | COLO 205 401 nM and 577 nM | HL-60 214 nM and 191 nM
1.5 µM (inactive) and 1.01 µM (active): MCF7
1.15 µM (inactive) and 933 nM (active): MDA-N
1 µM (active) and 1.73 µM (inactive): SF-539

O=C1C(N2CCCC2)=CC(=O)c2c(O)c(N3CCCC3)c(Cl)c(O)c21
inactive: SF-268 > 10 µM | EKVX > 10 µM | 786-0 > 10 µM | UO-31 > 10 µM | BT-549 > 10 µM | MDA-N > 10 µM | MDA-MB-231 > 10 µM | UACC-257 > 10 µM | NCI-H226 > 10 µM | OVCAR-3 > 10 µM | KM12 > 10 µM | LOX IMVI > 10 µM | TK-10 > 10 µM | M14 > 10 µM | NCI/ADR-RES > 10 µM | A549 > 10 µM | NCI-H23 > 10 µM | HCC 2998 > 10 µM | SK-OV-3 > 10 µM | U-251 > 10 µM | HCT-116 > 10 µM | PC-3 > 10 µM | CCRF-CEM > 10 µM | MOLT-4 > 10 µM | SN12C > 10 µM | Hs-578T > 10 µM | SW-620 > 10 µM | RXF 393 > 10 µM | RPMI-8226 > 10 µM | SK-MEL-28 > 10 µM | HOP-92 > 10 µM | A498 > 10 µM | HT-29 > 10 µM | MCF7 > 10 µM | SNB-75 > 10 µM | NCI-H460 > 10 µM | T47D > 10 µM | SF-539 > 10 µM | UACC-62 > 10 µM | SF-295 > 10 µM | K562 > 10 µM | MDA-MB-435 > 10 µM | SR > 10 µM | OVCAR-4 > 10 µM | HOP-62 > 10 µM | SK-MEL-5 > 10 µM | CAKI-1 > 10 µM | COLO 205 > 10 µM | DU-145 > 10 µM | ACHN > 10 µM | SNB-19 > 10 µM | IGROV-1 > 10 µM | SK-MEL-2 > 10 µM | NCI-H522 > 10 µM | HL-60 > 10 µM | Malme-3M > 10 µM
